Test results: patent US7947726B2, “Non-steroidal ligands for the glucocorticoid receptor, and compositions thereof” (The Regents of the University of California, priority 2002, dated 2011)

Key:
[1] = biological target: T1, AR (Homo sapiens, UniProt P10275); test: AR activation (max fold activation); type: cell-based; details: Table 4
T1 sequence (P10275 1-920): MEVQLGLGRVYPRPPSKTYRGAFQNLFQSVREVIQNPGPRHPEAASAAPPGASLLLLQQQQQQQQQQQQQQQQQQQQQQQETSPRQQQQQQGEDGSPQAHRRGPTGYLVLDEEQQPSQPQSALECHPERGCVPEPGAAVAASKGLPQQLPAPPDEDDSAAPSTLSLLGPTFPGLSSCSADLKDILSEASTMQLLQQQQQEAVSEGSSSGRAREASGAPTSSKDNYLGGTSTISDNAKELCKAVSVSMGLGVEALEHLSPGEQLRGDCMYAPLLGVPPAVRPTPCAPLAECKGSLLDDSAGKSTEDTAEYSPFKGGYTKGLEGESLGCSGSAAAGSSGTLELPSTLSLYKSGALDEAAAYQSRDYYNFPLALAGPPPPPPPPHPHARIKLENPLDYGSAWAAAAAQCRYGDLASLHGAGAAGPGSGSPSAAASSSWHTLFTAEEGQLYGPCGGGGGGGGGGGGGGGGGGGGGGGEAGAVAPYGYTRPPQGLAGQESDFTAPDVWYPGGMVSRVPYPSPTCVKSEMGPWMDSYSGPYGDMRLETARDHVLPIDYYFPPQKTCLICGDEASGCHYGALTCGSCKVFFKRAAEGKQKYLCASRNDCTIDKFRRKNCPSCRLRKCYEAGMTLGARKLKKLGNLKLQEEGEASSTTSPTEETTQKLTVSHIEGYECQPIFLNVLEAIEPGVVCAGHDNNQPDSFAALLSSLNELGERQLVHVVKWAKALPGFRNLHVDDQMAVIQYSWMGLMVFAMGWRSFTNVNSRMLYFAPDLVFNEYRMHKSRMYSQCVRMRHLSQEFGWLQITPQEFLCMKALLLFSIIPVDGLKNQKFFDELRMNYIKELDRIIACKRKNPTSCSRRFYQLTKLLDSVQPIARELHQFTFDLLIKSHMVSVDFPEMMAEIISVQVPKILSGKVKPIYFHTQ

[2] = test system: NF-κB; test: NF-κB repression luciferase assay in A549 cells; type: cell-based, human; details: Table 5, TNF-α-stimulated A549 cells
Source text: Plasmids for GR (human, pSG5 backbone), AP1-Luc (synthetic AP1 response element upstream of a firefly luciferase gene), TAT3-Luc (three copies of the tyrosine aminotransferase glucocorticoid response element upstream of a firefly luciferase gene), β-galactosidase (used as a transfection control), as well as two stable transfected cells lines: an A549 (human, lung carcinoma) cell line stably transfected with a κB response element upstream of a firefly luciferase gene, (R. M. Nissen et al., Genes Dev., 14(18):2314-29, (2000)) and a U2OS (human, osteosarcoma) stably transfected with rat GR (I. Rogatsky, et al., Mol. Cell. Biol., 1997, 17, 3181-3193) were a gift of Professor Keith Yamamoto (Department of Biochemistry, University of California, San Francisco).
For NF-κB repression assays, A549 cells stably transfected with a luciferase reporter were grown under the same conditions as CV-1 cells. 50,000 cells/well were plated into 96 well plates and incubated for 12 h at 37° C. Either TNF-α alone or mixed with various hormone dilutions in media were then added to the cells, which were then incubated for 8 hours. Procedures for lysis and luciferase assay were performed as previously described. Protein content was used as a control in this case and the recommended procedures using the BCA Protein Assay Kit (Roche) were followed.

AR max fold activation [1]	EC50 ([2]; Homo sapiens, read-out: Repression NF-KB pot (EC50)) [nM]	Compound	Repression NF-KB % max repression [2] [%]
4.6 ± 1.6	–	Cc1cc(O)cc(C)c1C(O)C1CCCC2=Cc3c(cnn3-c3ccc(F)cc3)CC21C (stereo not drawn) [Compound 227, 4-{[1-(4-Fluoro-phenyl)-4a-methyl-4,4a,5,6,7,8-hexahydro-1H-benzo[f]indazol-5-yl]-hydroxy-methyl}-3,5-dimethyl-phenol]	–
–	26.4	CC12Cc3cnn(-c4ccc(F)cc4)c3C=C1CCCC2C(O)c1cccc2[nH]ccc12 (stereo not drawn) [Compound 237, [1-(4-Fluoro-phenyl)-4a-methyl-4,4a,5,6,7,8-hexahydro-1H-benzo[f]indazol-5-yl]-(1H-indol-4-yl)-methanol]	74
